Consider three compounds from patent US9856220B2 (AbbVie Deutschland GmbH & Co. KG, priority 2011, dated 2018).

SMILES strings stand for the structures. Some results are limits rather than exact numbers.

The test system of data set [1] is rats. The following applies: cited from earlier work.
Data set [2] deals with rats. The following applies: rat, in vivo; cited from earlier work.
For data set [3], the system named is rats. The note with it: cited from earlier work. This is another data set of the same source.
Data set [4] can be described thus: Determination of the microsomal half-life / microsomal clearance, human liver microsomes. The note with it: 0.5 μM test substance, 0.25 mg of microsomal protein/ml, pH 7.4, 37° C. It is filed as in vitro ADME. As for the experimental part:
(§1) b) Determination of the Microsomal Half-Life:
(§2) The metabolic stability of the compounds of the invention was determined in the following assay.
(§3) The test substances were incubated in a concentration of 0.5 μM as follows:
(§4) 0.5 μM test substance are preincubated together with liver microsomes from different species (from rat, human or other species) (0.25 mg of microsomal protein/ml) in 0.05 M potassium phosphate buffer of pH 7.4 in microtiter plates at 37° C. for 5 min. The reaction is started by adding NADPH (1 mg/mL). After 0, 5, 10, 15, 20 and 30 min, 50 μl aliquots are removed, and the reaction is immediately stopped and cooled with the same volume of acetonitrile. The samples are frozen until analyzed. The remaining concentration of undegraded test substance is determined by MSMS. The half-life (T½) is determined from the gradient of the signal of test substance/unit time plot, it being possible to calculate the half-life of the test substance, assuming first order kinetics, from the decrease in the concentration of the compound with time. The microsomal clearance (mCl) is calculated from mCl=ln 2/T½/(content of microsomal protein in mg/ml)×1000 [ml/min/mg]
(Liver microsomes are a subcellular fraction often used to study metabolism.)

The target of another data set is PDE10A (Homo sapiens (Human), UniProt Q9Y233). Nature of the data set: Measurement of PDE activity (recombinant PDE, cAMP HTRF). It is filed as biochemical. The note with it: 20 nM cyclic nucleotide substrate, 60 minutes at 29 C. Put shortly:
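Recombinant human PDE10A in 20 mM Tris-HCl pH 7.5, 10 mM MgCl2, 0.1% BSA with 20 nM cyclic nucleotide substrate; reaction 60 min at 29 C after compound preincubation with enzyme. Residual cAMP detected by HTRF (cAMP-d2/anti-cAMP cryptate); IC50 from inhibitor concentration versus PDE activity.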

Data set [5] in a line: Determination of the microsomal half-life / microsomal clearance, rat liver microsomes. It is filed as in vitro ADME. The note with it: 0.5 μM test substance, 0.25 mg of microsomal protein/ml, pH 7.4, 37° C. As for the experimental part:
as §1, §2, §3, §4

Chain of PDE10A (Q9Y233 whole entry, species assumed): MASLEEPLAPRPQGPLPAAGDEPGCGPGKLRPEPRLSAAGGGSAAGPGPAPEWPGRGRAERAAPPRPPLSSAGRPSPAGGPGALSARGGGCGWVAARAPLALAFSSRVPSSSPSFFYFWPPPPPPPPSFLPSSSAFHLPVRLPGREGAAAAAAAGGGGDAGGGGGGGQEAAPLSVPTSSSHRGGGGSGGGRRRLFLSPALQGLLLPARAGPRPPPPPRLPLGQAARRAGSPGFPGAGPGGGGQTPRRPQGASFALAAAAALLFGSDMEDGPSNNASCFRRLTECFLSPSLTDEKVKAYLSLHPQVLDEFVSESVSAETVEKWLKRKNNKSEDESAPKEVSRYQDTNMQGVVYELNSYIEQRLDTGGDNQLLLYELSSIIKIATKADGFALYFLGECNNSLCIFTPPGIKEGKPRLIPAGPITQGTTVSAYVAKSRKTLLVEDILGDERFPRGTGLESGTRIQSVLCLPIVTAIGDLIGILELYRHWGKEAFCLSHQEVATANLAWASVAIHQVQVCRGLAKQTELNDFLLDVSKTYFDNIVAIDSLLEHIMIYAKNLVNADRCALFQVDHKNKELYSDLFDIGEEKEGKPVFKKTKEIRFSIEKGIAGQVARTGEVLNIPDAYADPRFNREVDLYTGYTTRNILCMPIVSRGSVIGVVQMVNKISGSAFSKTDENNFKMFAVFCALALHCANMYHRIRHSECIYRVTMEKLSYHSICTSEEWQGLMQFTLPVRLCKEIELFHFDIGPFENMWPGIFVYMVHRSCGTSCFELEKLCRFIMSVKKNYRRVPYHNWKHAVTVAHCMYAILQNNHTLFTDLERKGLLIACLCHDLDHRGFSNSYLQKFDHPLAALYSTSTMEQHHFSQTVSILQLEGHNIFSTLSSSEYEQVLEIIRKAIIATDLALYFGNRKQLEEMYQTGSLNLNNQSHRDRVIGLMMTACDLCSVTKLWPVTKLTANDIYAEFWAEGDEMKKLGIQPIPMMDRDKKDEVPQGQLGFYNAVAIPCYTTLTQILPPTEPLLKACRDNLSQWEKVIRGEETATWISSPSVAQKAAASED

For the compound `COc1ccc(Cc2nccc3cc(OC)c(OC)cc23)cc1OC` [Papaverine, papaverine], in the data set on rats [1] (compound alone), the “catalepsy on its own” value is given as “did not cause catalepsy on its own”. The “cataleptic effect of the D2 receptor antagonist haloperidol” value with rats [1] (with haloperidol) is “potentiated the cataleptic effect”. For the same compound, in the data set with rats [2], the “reduction of amphetamine-induced hyperactivity” value is given as “insignificant”. Further, the “hyperactivity induced by PCP” value in the data set on rats [3] was “reduced hyperactivity”.

What is called IC50 is the concentration that gives 50% inhibition. For the compound `CCn1cc(C(=O)Nc2ccc(C)cc2)c2cc(OC)c(OC)cc2c1=O` [Example 158, 2-Ethyl-6,7-dimethoxy-1-oxo-N-p-tolyl-1,2-dihydroisoquinoline-4-carboxamide], the “Human mCl” value in data set [4] is “++ (<100 μl min^−1 mg^−1)”. For the same compound, the IC50 at PDE10A lay within 100 to 200 nM. In addition, the “Rat mCl” value in data set [5] is “++ (<100 μl min^−1 mg^−1)”.

In the case of `CCC(CC)n1cc(C(=O)NCc2ccccc2S(=O)(=O)N2CCN(C)CC2)c2cc(OC)c(OC)cc2c1=O` [Example 219, 2-(1-Ethyl-propyl)-6,7-dimethoxy-1-oxo-1,2-dihydro-isoquinoline-4-carboxylic acid 2-(4-methyl-piperazine-1-sulfonyl)-benzylamide], the “Human mCl” value in data set [4] is “+ (100-220 μl min^−1 mg^−1)”. Also, the IC50 at PDE10A was under 100 nM. Moreover, the “Rat mCl” value in data set [5] is on record as “+ (100-220 μl min^−1 mg^−1)”.
